Assay results reported in ChEMBL document CHEMBL4507259 (2021).

Columns and labels:
[1] = target: T1, 5-hydroxytryptamine receptor 1A (Homo sapiens) (UniProt P08908); assay: 5-HT1A (h) CEREP ligand profiling; conditions: filed as agonist, Compound concentration 10.0 uM
T1 sequence (whole entry): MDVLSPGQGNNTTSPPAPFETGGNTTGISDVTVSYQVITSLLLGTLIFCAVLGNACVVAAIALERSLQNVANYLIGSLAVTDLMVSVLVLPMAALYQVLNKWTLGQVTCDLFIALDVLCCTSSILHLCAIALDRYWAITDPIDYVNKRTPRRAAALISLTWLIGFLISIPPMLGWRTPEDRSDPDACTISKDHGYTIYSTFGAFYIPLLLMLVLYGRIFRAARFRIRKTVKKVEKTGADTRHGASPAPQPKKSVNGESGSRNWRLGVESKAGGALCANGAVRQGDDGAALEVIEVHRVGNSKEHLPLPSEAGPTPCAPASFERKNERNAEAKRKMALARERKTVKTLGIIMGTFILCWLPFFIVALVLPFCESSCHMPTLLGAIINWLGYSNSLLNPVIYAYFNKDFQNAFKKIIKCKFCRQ

[2] = target: Cyclin-dependent kinase 18 (Homo sapiens) (UniProt Q07002); conditions: Compound concentration 1000.0 nM
[3] = target: D(3) dopamine receptor (Homo sapiens, UniProt P35462); assay: GPCRScan assay: inhibition of D3; design: radioligand conc. used [nm] 0.5 – 1.8, parental cells HEKT
[4] = target: cGMP-inhibited 3',5'-cyclic phosphodiesterase 3A (Homo sapiens) (UniProt Q14432); assay: PDE3A (h) CEREP ligand profiling; conditions: Compound concentration 10.0 uM
[5] = target: Ephrin type-A receptor 8 (Homo sapiens) (UniProt P29322); conditions: Compound concentration 1000.0 nM
[6] = target: T2, Alpha-1A adrenergic receptor (Homo sapiens) (UniProt P35348); conditions: Compound concentration 10.0 uM
T2 sequence (whole entry): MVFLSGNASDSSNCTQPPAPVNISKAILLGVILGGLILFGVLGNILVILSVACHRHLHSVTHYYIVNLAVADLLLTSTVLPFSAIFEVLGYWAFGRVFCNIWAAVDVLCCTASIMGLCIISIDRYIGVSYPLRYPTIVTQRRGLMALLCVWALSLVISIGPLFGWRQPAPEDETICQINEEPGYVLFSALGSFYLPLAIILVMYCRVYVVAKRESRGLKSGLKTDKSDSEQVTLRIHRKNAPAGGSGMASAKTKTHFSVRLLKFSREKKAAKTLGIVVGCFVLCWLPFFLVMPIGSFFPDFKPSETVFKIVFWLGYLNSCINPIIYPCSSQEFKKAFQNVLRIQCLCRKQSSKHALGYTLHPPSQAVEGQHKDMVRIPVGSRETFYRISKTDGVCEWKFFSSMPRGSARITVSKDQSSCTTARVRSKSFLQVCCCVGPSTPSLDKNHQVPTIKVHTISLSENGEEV

[7] = target: Adenosine receptor A2b (Homo sapiens) (UniProt P29275); assay: A2B (h) CEREP ligand profiling; conditions: filed as antagonist, Compound concentration 10.0 uM
[8] = target: Protein kinase C iota type (Homo sapiens) (UniProt P41743); conditions: Compound concentration 1000.0 nM
[9] = target: T3, Calcitonin-gene-related peptide receptor, CALCRL/RAMP1 (Homo sapiens) (UniProt O60894+Q16602); assay: Calcitonin Gene-Related Peptide CGRP1 CEREP ligand profiling; assay type: protein-complex assay; conditions: Compound concentration 10.0 uM
[10] = target: Mu-type opioid receptor (Homo sapiens) (UniProt P35372); conditions: Compound concentration 10.0 uM
[11] = system: HT-144; assay: HT-144 cell line Proliferation assay; assay type: functional, Homo sapiens; conditions: Compound concentration 10 uM; time 5 day
[12] = system: NCI-H838; assay: H838 cell line Proliferation assay; assay type: functional, Homo sapiens; conditions: Compound concentration 10 uM; time 3 day
[13] = system: NCI-H128; assay: H128 cell line Proliferation assay; assay type: functional, Homo sapiens; conditions: Compound concentration 10 uM; time 4 day
[14] = system: NCI-H209; assay: H209 cell line Proliferation assay; assay type: functional, Homo sapiens; conditions: Compound concentration 10 uM; time 4 day
[15] = system: MM1.S; assay: MM1.s cell line Proliferation assay; assay type: functional, Homo sapiens; conditions: Compound concentration 10 uM; time 3 day
[16] = target: Histone acetyltransferase KAT6A (Homo sapiens) (UniProt Q92794); assay: MYST3 (HAT) CEREP ligand profiling; conditions: Compound concentration 10.0 uM
[17] = system: HT; assay: HT cell line Proliferation assay; assay type: functional, Homo sapiens; conditions: Compound concentration 10 uM; time 3 day
[18] = system: KMS-11; assay: KMS-11 cell line Proliferation assay; assay type: functional, Homo sapiens; conditions: Compound concentration 10 uM; time 3 day
[19] = system: Hs 294T; assay: Hs294T cell line Proliferation assay; assay type: functional, Homo sapiens; conditions: Compound concentration 10 uM; time 5 day
[20] = system: LNCaP-Clone-FGC; assay: LnCaP -FGC cell line Proliferation assay; assay type: functional, Homo sapiens; conditions: Compound concentration 10 uM; time 5 day
[21] = system: NCI-H510A; assay: H510A cell line Proliferation assay; assay type: functional, Homo sapiens; conditions: Compound concentration 10 uM; time 4 day
[22] = system: SU-DHL-2; assay: SuDHL2 cell line Proliferation assay; assay type: functional, Homo sapiens; conditions: Compound concentration 10 uM; time 3 day
[23] = system: RCK8; assay: RCK8 cell line Proliferation assay; assay type: functional, Homo sapiens; conditions: Compound concentration 10 uM; time 3 day
[24] = system: OCI-Ly7; assay: OCI Ly7 cell line Proliferation assay; assay type: functional, Homo sapiens; conditions: Compound concentration 10 uM; time 3 day
[25] = system: MDA-MB-453; assay: MDA_MB_453 cell line Proliferation assay; assay type: functional, Homo sapiens; conditions: Compound concentration 10 uM; time 5 day
[26] = system: RL; assay: RL cell line Proliferation assay; assay type: functional, Homo sapiens; conditions: Compound concentration 10 uM; time 3 day
[27] = system: GA-10; assay: GA10 cell line Proliferation assay; assay type: functional, Homo sapiens; conditions: Compound concentration 10 uM; time 3 day
[28] = system: SU-DHL-16; assay: SuDHL16 cell line Proliferation assay; assay type: functional, Homo sapiens; conditions: Compound concentration 10 uM; time 3 day
[29] = system: Toledo; assay: Toledo cell line Proliferation assay; assay type: functional, Homo sapiens; conditions: Compound concentration 10 uM; time 3 day
[30] = system: THP-1; assay: THP-1 cell line Proliferation assay; assay type: functional, Homo sapiens; conditions: Compound concentration 10 uM; time 3 day
[31] = system: WSU-NHL; assay: WSU-NHL cell line Proliferation assay; assay type: functional, Homo sapiens; conditions: Compound concentration 10 uM; time 3 day
[32] = system: NCI-H1417; assay: H1417 cell line Proliferation assay; assay type: functional, Homo sapiens; conditions: Compound concentration 10 uM; time 4 day
[33] = system: NU-DHL-1; assay: NuDHL1 cell line Proliferation assay; assay type: functional, Homo sapiens; conditions: Compound concentration 10 uM; time 3 day
[34] = system: MOLT-4; assay: MOLT-4 cell line Proliferation assay; assay type: functional, Homo sapiens; conditions: Compound concentration 10 uM; time 3 day
[35] = system: EOL1; assay: EOL-1 cell line Proliferation assay; assay type: functional, Homo sapiens; conditions: Compound concentration 10 uM; time 3 day
[36] = target: T3, Calcitonin-gene-related peptide receptor, CALCRL/RAMP1 (Homo sapiens); assay: CGRP (h) CEREP ligand profiling; assay type: protein-complex assay; conditions: filed as agonist, Compound concentration 10.0 uM
[37] = system: Hs 695T; assay: Hs695T cell line Proliferation assay; assay type: functional, Homo sapiens; conditions: Compound concentration 10 uM; time 5 day
[38] = system: NCI-H187; assay: H187 cell line Proliferation assay; assay type: functional, Homo sapiens; conditions: Compound concentration 10 uM; time 4 day
[39] = system: U2932; assay: U2932 cell line Proliferation assay; assay type: functional, Homo sapiens; conditions: Compound concentration 10 uM; time 3 day
[40] = system: DU-145; assay: DU-145 cell line Proliferation assay; assay type: functional, Homo sapiens; conditions: Compound concentration 10 uM; time 5 day
[41] = target: Translocator protein (Rattus norvegicus) (UniProt P16257); assay: BZD (peripheral) CEREP ligand profiling; conditions: filed as antagonist; Compound concentration 10.0 uM
[42] = system: Raji; assay: Raji cell line Proliferation assay; assay type: functional, Homo sapiens; conditions: Compound concentration 10 uM; time 3 day
[43] = system: NCI-H727; assay: H727 cell line Proliferation assay; assay type: functional, Homo sapiens; conditions: Compound concentration 10 uM; time 3 day
[44] = system: ULA; assay: ULA cell line Proliferation assay; assay type: functional, Homo sapiens; conditions: Compound concentration 10 uM; time 3 day
[45] = target: Beta-2 adrenergic receptor (Homo sapiens) (UniProt P07550); assay: beta 2 (h) CEREP ligand profiling; conditions: filed as agonist, Compound concentration 10.0 uM
[46] = target: Sodium-dependent serotonin transporter (Homo sapiens, UniProt P31645); assay: GPCRScan assay: inhibition of SERT; design: radioligand conc. used [nm] 1.5 – 2.0, parental cells stable HEK
[47] = system: NCI-H23; assay: H23 cell line Proliferation assay; assay type: functional, Homo sapiens; conditions: Compound concentration 10 uM; time 3 day
[48] = system: Karpas-1106P; assay: K1106 cell line Proliferation assay; assay type: functional, Homo sapiens; conditions: Compound concentration 10 uM; time 3 day
[49] = system: MDA-MB-231; assay: MDA_MB_231 cell line Proliferation assay; assay type: functional, Homo sapiens; conditions: Compound concentration 10 uM; time 5 day

Chain of Sodium-dependent serotonin transporter (P31645 whole entry): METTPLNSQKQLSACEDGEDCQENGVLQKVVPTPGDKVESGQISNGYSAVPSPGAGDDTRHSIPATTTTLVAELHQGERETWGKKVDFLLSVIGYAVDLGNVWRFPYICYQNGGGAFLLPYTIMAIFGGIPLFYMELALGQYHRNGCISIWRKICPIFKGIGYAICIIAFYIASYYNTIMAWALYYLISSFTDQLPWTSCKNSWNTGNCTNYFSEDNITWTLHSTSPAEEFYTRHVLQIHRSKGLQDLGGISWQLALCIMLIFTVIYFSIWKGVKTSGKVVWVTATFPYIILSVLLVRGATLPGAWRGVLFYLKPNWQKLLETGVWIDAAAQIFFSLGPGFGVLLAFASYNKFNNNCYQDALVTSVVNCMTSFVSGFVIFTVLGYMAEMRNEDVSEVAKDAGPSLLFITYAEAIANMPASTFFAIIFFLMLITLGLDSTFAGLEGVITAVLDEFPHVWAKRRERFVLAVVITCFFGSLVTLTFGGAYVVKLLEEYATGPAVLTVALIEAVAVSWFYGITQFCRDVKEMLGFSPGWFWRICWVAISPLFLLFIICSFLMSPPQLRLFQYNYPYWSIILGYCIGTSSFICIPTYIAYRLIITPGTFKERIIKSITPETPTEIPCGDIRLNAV
Chain of D(3) dopamine receptor (P35462 whole entry): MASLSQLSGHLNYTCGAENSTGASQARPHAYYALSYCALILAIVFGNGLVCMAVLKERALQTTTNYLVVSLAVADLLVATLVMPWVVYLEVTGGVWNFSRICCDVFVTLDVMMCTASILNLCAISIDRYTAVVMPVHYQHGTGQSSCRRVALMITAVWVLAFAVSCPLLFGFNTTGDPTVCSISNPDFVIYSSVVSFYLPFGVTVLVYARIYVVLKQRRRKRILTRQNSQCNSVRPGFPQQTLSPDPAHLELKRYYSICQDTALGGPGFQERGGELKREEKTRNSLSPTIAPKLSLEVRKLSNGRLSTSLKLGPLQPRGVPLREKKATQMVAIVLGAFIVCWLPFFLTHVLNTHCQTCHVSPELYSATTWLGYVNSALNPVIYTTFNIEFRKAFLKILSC
Chain of Protein kinase C iota type (Homo sapiens) (P41743 whole entry): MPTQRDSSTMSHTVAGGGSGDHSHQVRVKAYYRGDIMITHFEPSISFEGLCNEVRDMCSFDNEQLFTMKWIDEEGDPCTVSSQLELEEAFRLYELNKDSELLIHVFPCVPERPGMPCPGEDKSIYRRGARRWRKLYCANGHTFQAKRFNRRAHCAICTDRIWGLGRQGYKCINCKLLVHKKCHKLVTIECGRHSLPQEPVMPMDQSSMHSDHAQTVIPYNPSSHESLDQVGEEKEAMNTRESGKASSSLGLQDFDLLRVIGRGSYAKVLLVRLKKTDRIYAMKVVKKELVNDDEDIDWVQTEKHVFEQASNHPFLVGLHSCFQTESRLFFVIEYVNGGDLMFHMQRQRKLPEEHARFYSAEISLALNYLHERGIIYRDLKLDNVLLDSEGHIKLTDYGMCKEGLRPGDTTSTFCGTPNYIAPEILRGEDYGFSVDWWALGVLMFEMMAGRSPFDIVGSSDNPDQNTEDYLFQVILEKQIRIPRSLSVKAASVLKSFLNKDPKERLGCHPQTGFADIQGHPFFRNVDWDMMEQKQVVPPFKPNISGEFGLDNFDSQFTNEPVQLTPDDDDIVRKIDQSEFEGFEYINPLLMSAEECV
Chain of Adenosine receptor A2b (Homo sapiens) (P29275 whole entry): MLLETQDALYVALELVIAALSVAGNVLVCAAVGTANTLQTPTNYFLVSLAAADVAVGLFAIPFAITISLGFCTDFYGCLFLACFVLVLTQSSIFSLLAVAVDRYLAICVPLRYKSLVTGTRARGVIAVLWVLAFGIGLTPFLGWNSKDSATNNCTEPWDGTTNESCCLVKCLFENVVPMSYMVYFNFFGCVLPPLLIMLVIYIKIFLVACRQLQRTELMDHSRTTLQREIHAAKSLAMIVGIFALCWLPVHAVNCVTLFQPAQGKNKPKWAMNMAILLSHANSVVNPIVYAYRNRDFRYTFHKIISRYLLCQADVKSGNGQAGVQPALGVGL
Chain of Mu-type opioid receptor (Homo sapiens) (P35372 whole entry): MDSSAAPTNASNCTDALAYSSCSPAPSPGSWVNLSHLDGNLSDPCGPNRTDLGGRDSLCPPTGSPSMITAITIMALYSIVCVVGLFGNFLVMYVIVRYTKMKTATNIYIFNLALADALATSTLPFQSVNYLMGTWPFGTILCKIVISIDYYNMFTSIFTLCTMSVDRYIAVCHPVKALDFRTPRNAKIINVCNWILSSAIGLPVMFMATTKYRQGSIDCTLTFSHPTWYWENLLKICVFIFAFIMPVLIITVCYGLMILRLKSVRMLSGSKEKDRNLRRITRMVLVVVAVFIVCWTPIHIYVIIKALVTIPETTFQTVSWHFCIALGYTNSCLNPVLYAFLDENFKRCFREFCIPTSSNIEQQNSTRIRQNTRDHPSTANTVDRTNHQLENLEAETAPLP
Chain of Beta-2 adrenergic receptor (Homo sapiens) (P07550 whole entry, looked up): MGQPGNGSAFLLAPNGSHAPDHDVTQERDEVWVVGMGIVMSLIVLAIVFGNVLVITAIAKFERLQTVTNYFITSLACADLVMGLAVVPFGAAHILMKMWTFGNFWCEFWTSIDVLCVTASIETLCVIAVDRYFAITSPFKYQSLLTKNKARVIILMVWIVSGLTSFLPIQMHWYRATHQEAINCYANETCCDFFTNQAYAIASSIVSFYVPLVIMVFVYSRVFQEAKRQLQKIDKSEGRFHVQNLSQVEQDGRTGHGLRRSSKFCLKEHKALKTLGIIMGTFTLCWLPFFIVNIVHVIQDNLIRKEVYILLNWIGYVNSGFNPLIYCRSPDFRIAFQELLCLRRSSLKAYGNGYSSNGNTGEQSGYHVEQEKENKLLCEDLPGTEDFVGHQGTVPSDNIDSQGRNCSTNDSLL
Chain of Translocator protein (Rattus norvegicus) (P16257 whole entry, looked up): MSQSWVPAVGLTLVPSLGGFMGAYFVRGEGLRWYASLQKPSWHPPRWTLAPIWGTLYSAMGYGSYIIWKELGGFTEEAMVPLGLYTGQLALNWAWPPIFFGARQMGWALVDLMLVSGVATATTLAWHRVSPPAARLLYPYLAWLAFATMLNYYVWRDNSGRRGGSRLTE
Chain of cGMP-inhibited 3',5'-cyclic phosphodiesterase 3A (Homo sapiens) (Q14432 whole entry): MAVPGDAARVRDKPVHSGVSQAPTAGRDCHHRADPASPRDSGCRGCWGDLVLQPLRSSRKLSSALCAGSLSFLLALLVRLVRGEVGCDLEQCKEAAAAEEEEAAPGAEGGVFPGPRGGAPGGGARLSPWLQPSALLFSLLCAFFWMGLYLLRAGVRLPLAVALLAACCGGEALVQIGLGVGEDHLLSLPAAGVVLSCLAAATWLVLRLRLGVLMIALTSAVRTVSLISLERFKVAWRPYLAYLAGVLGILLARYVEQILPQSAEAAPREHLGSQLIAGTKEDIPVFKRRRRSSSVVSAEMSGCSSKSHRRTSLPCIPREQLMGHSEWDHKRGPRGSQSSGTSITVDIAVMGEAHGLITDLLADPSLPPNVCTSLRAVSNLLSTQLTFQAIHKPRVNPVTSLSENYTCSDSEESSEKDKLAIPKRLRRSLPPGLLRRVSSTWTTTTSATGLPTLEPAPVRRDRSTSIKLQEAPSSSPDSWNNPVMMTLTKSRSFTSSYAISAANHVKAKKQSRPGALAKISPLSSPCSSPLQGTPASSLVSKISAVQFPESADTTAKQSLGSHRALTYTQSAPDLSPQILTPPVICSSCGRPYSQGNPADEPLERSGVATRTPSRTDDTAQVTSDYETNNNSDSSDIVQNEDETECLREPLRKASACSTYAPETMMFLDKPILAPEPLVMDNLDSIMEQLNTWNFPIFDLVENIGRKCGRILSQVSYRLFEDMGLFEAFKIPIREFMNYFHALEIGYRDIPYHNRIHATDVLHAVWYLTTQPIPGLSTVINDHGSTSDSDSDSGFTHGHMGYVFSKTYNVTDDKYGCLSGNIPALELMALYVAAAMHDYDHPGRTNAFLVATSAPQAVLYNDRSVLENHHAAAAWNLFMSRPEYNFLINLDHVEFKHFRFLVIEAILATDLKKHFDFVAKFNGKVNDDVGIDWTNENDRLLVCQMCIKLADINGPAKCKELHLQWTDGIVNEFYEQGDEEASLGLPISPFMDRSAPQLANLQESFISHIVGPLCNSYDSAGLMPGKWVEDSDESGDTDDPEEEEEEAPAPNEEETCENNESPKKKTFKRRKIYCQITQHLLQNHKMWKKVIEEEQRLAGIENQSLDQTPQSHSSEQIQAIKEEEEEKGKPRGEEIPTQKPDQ
Chain of Cyclin-dependent kinase 18 (Homo sapiens) (Q07002 whole entry): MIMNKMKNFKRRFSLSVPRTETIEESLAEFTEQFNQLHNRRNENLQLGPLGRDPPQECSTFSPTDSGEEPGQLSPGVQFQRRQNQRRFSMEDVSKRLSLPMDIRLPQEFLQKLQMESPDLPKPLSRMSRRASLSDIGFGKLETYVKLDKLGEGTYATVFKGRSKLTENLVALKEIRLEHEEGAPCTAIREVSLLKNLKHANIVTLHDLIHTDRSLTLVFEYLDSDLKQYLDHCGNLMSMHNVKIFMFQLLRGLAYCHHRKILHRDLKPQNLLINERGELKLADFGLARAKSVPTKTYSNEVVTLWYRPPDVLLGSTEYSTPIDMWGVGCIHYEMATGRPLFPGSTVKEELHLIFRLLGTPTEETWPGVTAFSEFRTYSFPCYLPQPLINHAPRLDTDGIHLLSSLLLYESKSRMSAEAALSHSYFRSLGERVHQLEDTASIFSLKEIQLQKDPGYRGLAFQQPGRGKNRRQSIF

SMILES: CNC(=O)Nc1ccc2c(c1)[C@@]1(CC2)OC(=O)N(CC(=O)N(Cc2ccc(F)cc2)[C@@H](C)C(F)(F)F)C1=O [A-486]
- inhibition [1]: 8%
- residual activity [2]: 100%
- Ki ([3]; read-out: Ki): 1140 nM
- Ki ([3]; read-out: pKi (converted)): 1100 nM
- inhibition [4]: -1%
- residual activity [5]: 96%
- inhibition [6]: 0.04%
- inhibition [7]: 1%
- residual activity [8]: 91%
- inhibition [9]: -10%
- inhibition [10]: -5.11%

SMILES: CNC(=O)Nc1ccc2c(c1)CC[C@@]21OC(=O)N(CC(=O)N(Cc2ccc(F)cc2)[C@@H](C)C(F)(F)F)C1=O [A-485]
- Cell Proliferation EC50 [11]: 3.077 µM
- Cell Proliferation EC50 [12]: 6.99 µM
- Cell Proliferation EC50 [13]: >10 µM
- Cell Proliferation EC50 [14]: 0.4 µM
- Cell Proliferation EC50 [15]: 0.181 µM
- inhibition [16]: 5.6%
- Cell Proliferation EC50 [17]: >10 µM
- Cell Proliferation EC50 [18]: 0.241 µM
- Cell Proliferation EC50 [19]: 9 µM
- Cell Proliferation EC50 [20]: 0.26 µM
- Cell Proliferation EC50 [21]: >10 µM
- Cell Proliferation EC50 [22]: 0.9538 µM
- Cell Proliferation EC50 [23]: 0.5893 µM
- Cell Proliferation EC50 [24]: 1.813 µM
- Cell Proliferation EC50 [25]: 1.8664 µM
- Cell Proliferation EC50 [26]: 1.047 µM
- Cell Proliferation EC50 [27]: 1.059 µM
- Cell Proliferation EC50 [28]: 0.7304 µM
- Cell Proliferation EC50 [29]: 0.4875 µM
- Cell Proliferation EC50 [30]: 3.51 µM
- Cell Proliferation EC50 [31]: 1.063 µM
- Cell Proliferation EC50 [32]: >10 µM
- Cell Proliferation EC50 [33]: 0.5301 µM
- Cell Proliferation EC50 [34]: >10 µM
- Cell Proliferation EC50 [35]: >10 µM
- inhibition [36]: 0%
- Cell Proliferation EC50 [37]: 3.571 µM
- Cell Proliferation EC50 [38]: >10 µM
- Cell Proliferation EC50 [39]: 2.46 µM
- Cell Proliferation EC50 [40]: >10 µM
- inhibition [41]: 72%
- Cell Proliferation EC50 [42]: 0.4631 µM
- Cell Proliferation EC50 [43]: 6.632 µM
- Cell Proliferation EC50 [44]: 0.5506 µM
- inhibition [45]: 8%
- Ki ([46]; read-out: Ki): 223 nM
- Ki ([46]; read-out: pKi (converted)): 219 nM
- Cell Proliferation EC50 [47]: 1.791 µM
- Cell Proliferation EC50 [48]: 0.4051 µM
- Cell Proliferation EC50 [49]: >10 µM
